The experiment deals with T1, human B-Raf (Homo sapiens, UniProt P15056).
T1 construct: Flag; GST; made in house; host or cells: Sf9 insect cells (B-Raf); E. coli (MEK1-GST)
Briefly: B-Raf Kinase to MEK1 ELISA. Type of experiment: biochemical. To be noted: for inhibition at 10 µM: read-out: % Inhib./10 uM. The essentials:
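Read-out is a DELFIA europium signal from phospho-MEK1 (Ser217/221) antibody after capture of GST-MEK1 (50 nM final) on anti-GST plates. Phosphorylation comes from Sf9-expressed Flag/GST human B-Raf (~20 ng) with ATP/MgCl2, 60 min RT, pH 7.2 MOPS.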
For orientation: In an ELISA, binding on a coated surface is turned into a signal by an enzyme label.

[1] abbreviates: median, cpd concentrations from 10 μM to 30 nM in half log dilutions, read-out: Median IC50.

Like-named read-outs stand apart in the source and are kept apart here.

T1 sequence (P15056 whole entry): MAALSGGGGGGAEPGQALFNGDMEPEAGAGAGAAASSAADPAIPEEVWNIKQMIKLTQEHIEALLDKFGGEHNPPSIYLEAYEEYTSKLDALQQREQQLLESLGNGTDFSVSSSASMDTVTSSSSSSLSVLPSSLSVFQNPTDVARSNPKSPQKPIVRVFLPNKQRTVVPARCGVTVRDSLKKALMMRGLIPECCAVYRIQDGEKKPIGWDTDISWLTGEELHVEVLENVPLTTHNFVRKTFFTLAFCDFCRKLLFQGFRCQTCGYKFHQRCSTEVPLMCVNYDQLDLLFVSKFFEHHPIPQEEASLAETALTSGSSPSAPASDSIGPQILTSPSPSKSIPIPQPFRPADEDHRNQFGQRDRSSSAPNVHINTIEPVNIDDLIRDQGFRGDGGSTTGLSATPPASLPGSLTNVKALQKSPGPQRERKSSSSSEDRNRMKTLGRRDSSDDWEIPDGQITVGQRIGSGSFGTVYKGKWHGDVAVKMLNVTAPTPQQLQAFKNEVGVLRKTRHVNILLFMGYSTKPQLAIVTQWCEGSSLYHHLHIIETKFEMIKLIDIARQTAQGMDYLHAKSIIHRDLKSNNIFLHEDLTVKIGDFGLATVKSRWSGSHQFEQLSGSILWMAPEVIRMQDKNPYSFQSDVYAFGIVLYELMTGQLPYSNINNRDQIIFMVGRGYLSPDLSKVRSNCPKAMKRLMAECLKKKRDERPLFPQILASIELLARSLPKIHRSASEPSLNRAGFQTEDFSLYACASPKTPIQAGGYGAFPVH

Turning to `O=C(Nc1cccc(-c2ccnc3c(-c4ccncc4)cnn23)c1)c1ccc(F)c(C(F)(F)F)c1` [Example 190, 4-fluoro-N-[3-(3-pyridin-4-ylpyrazolo[1,5-a]pyrimidin-7-yl)phenyl]-3-(trifluoromethyl)benzamide], the inhibition at 10 µM worked out at 68%. The IC50 (as a rule, the point on the concentration scale where inhibition reaches its midpoint) under setting [1] was determined as 940 nM.
Regarding `CC(=O)c1ccccc1-c1cnn2c(-c3cccc(NC(=O)c4cccc(C(F)(F)F)c4)c3)ccnc12` [Example 298, N-{3-[3-(2-acetylphenyl)pyrazolo[1,5-a]pyrimidin-7-yl]phenyl}-3-(trifluoromethyl)benzamide], the IC50 was found to be 266 nM and the inhibition at 10 µM amounted to 69%.
Regarding `CCOC(=O)c1cnn2c(-c3cccc(NC(=O)Nc4ccc(OC)c(Cl)c4)c3)ccnc12` [Example 81, ethyl 7-[3-({[(3-chloro-4-methoxyphenyl)amino]carbonyl}amino)phenyl]pyrazolo[1,5-a]pyrimidine-3-carboxylate], the inhibition at 10 µM was found to be 50%. Under setting [1], the IC50 came to 6150 nM.
In the case of `CCOC(=O)c1cnn2c(-c3cccc(NC(=O)Nc4ccc(Cl)c(C(F)(F)F)c4)c3)ccnc12` [Example 11, ethyl 7-{3-[({[4-chloro-3-(trifluoromethyl)phenyl]amino}carbonyl)amino]phenyl}pyrazolo[1,5-a]pyrimidine-3-carboxylate], under setting [1], the IC50 turned out to be 300 nM. Where the note is “single point assay, 10 uM”, the inhibition at 10 µM is 93%.
In the case of `Cc1cnc2cc(-c3ccncc3)nn2c1-c1cccc(NC(=O)c2cccc(C(F)(F)F)c2)c1` [Example 177, N-[3-(6-methyl-2-pyridin-4-ylpyrazolo[1,5-a]pyrimidin-7-yl)phenyl]-3-(trifluoromethyl)benzamide], the inhibition at 10 µM turned out to be 95%. Under setting [1], the IC50 was determined as 200 nM.
The like results for `O=C(Nc1cccc(-c2ccnc3c(Br)cnn23)c1)c1ccc(Cl)c(C(F)(F)F)c1` [Example 164, N-[3-(3-bromopyrazolo[1,5-a]pyrimidin-7-yl)phenyl]-4-chloro-3-(trifluoromethyl)benzamide] were, in that order, 58% and more than 10000 nM.
Turning to `CC(C)(C)c1cc2nccc(-c3cccc(NC(=O)c4cccc(C(F)(F)F)c4)c3)n2n1` [Example 138, N-[3-(2-tert-butylpyrazolo[1,5-a]pyrimidin-7-yl)phenyl]-3-(trifluoromethyl)benzamide], the inhibition at 10 µM was determined as 46%. Also, the IC50 under setting [1] is more than 10000 nM.
In the same order, the values of `Cc1ccc(C(=O)Nc2cccc(-c3ccnc4cc(-c5cccs5)nn34)c2)cc1C(F)(F)F` [Example 117, 4-methyl-N-{3-[2-(2-thienyl)pyrazolo[1,5-a]pyrimidin-7-yl]phenyl}-3-(trifluoromethyl)benzamide] are 24% and more than 10000 nM.
In the same order, the values of `O=C(Nc1cccc(-c2ccnc3cc(N4CCOCC4)nn23)c1)Nc1ccc(F)c(C(F)(F)F)c1` [Example 202, N-[4-fluoro-3-(trifluoromethyl)phenyl]-N′-[3-(2-morpholin-4-ylpyrazolo[1,5-a]pyrimidin-7-yl)phenyl]urea] are 96% and 120 nM.
The like results for `O=C(Nc1cccc(-c2ccnc3c(C(=O)O)cnn23)c1)c1cccc(C(F)(F)F)c1` [Example 32, 7-(3-{[3-(trifluoromethyl)benzoyl]amino}phenyl)pyrazolo[1,5-a]pyrimidine-3-carboxylic acid] were, in that order, 29% and more than 10000 nM.
As for `O=C(Nc1cccc(-c2ccnc3c(-c4cccnc4)cnn23)c1)Nc1ccc(Cl)c(Cl)c1` [Example 175, N-(3,4-dichlorophenyl)-N′-[3-(3-pyridin-3-ylpyrazolo[1,5-a]pyrimidin-7-yl)phenyl]urea], the inhibition at 10 µM was determined as 70%. In addition, under setting [1], the 50% inhibitory concentration (IC50) was determined as 450 nM.
For `O=C(Nc1cccc(-c2ccnc3c(-c4ccc(F)nc4)cnn23)c1)c1cccc(C(F)(F)F)c1` [Example 311, N-{3-[3-(6-fluoropyridin-3-yl)pyrazolo[1,5-a]pyrimidin-7-yl]phenyl}-3-(trifluoromethyl)benzamide], the IC50 came to 10700 nM and the inhibition at 10 µM was found to be 80%.
In the case of `O=C(Nc1cccc(-c2ccnc3cc(-c4ccncc4)nn23)c1)Nc1ccc(F)c(C(F)(F)F)c1` [Example 131, N-[4-fluoro-3-(trifluoromethyl)phenyl]-N′-[3-(2-pyridin-4-ylpyrazolo[1,5-a]pyrimidin-7-yl)phenyl]urea], the inhibition at 10 µM stood at 98%. Also, under setting [1], the IC50 came to 30 nM.
With `CCOC(=O)c1cnn2c(-c3cccc(NC(=O)Nc4cc(Cl)cc(Cl)c4)c3)ccnc12` [Example 17, ethyl 7-[3-({[(3,5-dichlorophenyl)amino]carbonyl}amino)phenyl]pyrazolo[1,5-a]pyrimidine-3-carboxylate], the inhibition at 10 µM turned out to be 30%. The half-maximal inhibitory concentration (IC50) under setting [1] is more than 10000 nM.
Turning to `O=C(Nc1cccc(-c2ccnc3c(C(=O)NCCN4CCOCC4)cnn23)c1)c1cccc(C(F)(F)F)c1` [Example 52, N-(2-morpholin-4-ylethyl)-7-(3-{[3-(trifluoromethyl)benzoyl]amino}phenyl)pyrazolo[1,5-a]pyrimidine-3-carboxamide], the inhibition at 10 µM was found to be 60%. The IC50 under setting [1] worked out at 8000 nM.
In the same order, the values of `CCOC(=O)c1cnn2c(-c3cccc(NC(=O)Nc4cc(OC)cc(C(F)(F)F)c4)c3)ccnc12` [Example 77, ethyl 7-{3-[({[3-methoxy-5-(trifluoromethyl)phenyl]amino}carbonyl)amino]phenyl}pyrazolo[1,5-a]pyrimidine-3-carboxylate] are 72% and 990 nM.
Take `O=C(Nc1cccc(-c2ccnc3cc(-c4ccncc4)nn23)c1)c1ccc(Cl)c(C(F)(F)F)c1` [Example 129, 4-chloro-N-[3-(2-pyridin-4-ylpyrazolo[1,5-a]pyrimidin-7-yl)phenyl]-3-(trifluoromethyl)benzamide]: the IC50 was found to be 50 nM and the inhibition at 10 µM turned out to be 86%.
For `Cc1ccc(C(=O)Nc2cccc(-c3ccnc4c(-c5cccc(O)c5)cnn34)c2)cc1C(F)(F)F` [Example 181, N-{3-[3-(3-hydroxyphenyl)pyrazolo[1,5-a]pyrimidin-7-yl]phenyl}-4-methyl-3-(trifluoromethyl)benzamide], the half-maximal inhibitory concentration (IC50) is 290 nM and the inhibition at 10 µM was determined as 87%.
For the compound `CCOC(=O)c1cc2nccc(-c3cccc(NC(=O)c4cccc(C(F)(F)F)c4)c3)n2n1` [Example 185, ethyl 7-(3-{[3-(trifluoromethyl)benzoyl]amino}phenyl)pyrazolo[1,5-a]pyrimidine-2-carboxylate], the inhibition at 10 µM stood at 6%. The IC50 under setting [1] is more than 10000 nM.
Consider `O=C(Nc1cccc(-c2ccnc3cc(-c4ccc(F)cc4)nn23)c1)c1cccc(C(F)(F)F)c1` [Example 139, N-{3-[2-(4-fluorophenyl)pyrazolo[1,5-a]pyrimidin-7-yl]phenyl}-3-(trifluoromethyl)benzamide], for which the inhibition at 10 µM worked out at 35%. In addition, the half-maximal inhibitory concentration (IC50) under setting [1] is more than 10000 nM.
On to `CCOC(=O)c1cnn2c(-c3cccc(NC(=O)c4cc5ccccc5s4)c3)ccnc12` [Example 5, ethyl 7-{3-[(1-benzothien-2-ylcarbonyl)amino]phenyl}pyrazolo[1,5-a]pyrimidine-3-carboxylate], for which the inhibition at 10 µM worked out at 24%. Under setting [1], the IC50 is more than 20000 nM.
Consider `O=C(Nc1cccc(-c2ccnc3c(Br)cnn23)c1)Nc1ccc(Cl)c(C(F)(F)F)c1` [Example 143, N-[3-(3-bromopyrazolo[1,5-a]pyrimidin-7-yl)phenyl]-N′-[4-chloro-3-(trifluoromethyl)phenyl]urea], for which the inhibition at 10 µM was determined as 92%. Further, the IC50 under setting [1] came out at 140 nM.
Turning to `CN(C)CCc1ccc(-c2cnn3c(-c4cccc(NC(=O)c5cccc(C(F)(F)F)c5)c4)ccnc23)cc1` [Example 289, N-[3-(3-{4-[2-(dimethylamino)ethyl]phenyl}pyrazolo[1,5-a]pyrimidin-7-yl)phenyl]-3-(trifluoromethyl)benzamide], the inhibition at 10 µM was found to be 86%. Further, the half-maximal inhibitory concentration (IC50) under setting [1] came to 26 nM.
Turning to `Cc1ccc(C(=O)Nc2cccc(-c3ccnc4c(-c5cccc(C#N)c5)cnn34)c2)cc1C(F)(F)F` [Example 182, N-{3-[3-(3-cyanophenyl)pyrazolo[1,5-a]pyrimidin-7-yl]phenyl}-4-methyl-3-(trifluoromethyl)benzamide], the inhibition at 10 µM is 29%. The half-inhibitory concentration (IC50) under setting [1] is more than 10000 nM.
As to `CCOC(=O)c1cnn2c(-c3ccc(OCc4ccccc4)c(NC(=O)c4ccc(C)c(C(F)(F)F)c4)c3)ccnc12` [Example 108, ethyl 7-(4-(benzyloxy)-3-{[4-methyl-3-(trifluoromethyl)benzoyl]amino}phenyl)pyrazolo[1,5-a]pyrimidine-3-carboxylate], the inhibition at 10 µM was found to be 20%. For the same compound, under setting [1], the half-inhibitory concentration (IC50) is more than 10000 nM.
In the same order, the values of `CCOC(=O)c1cnn2c(-c3cccc(NC(=O)Nc4ccc5ccccc5c4)c3)ccnc12` [Example 21, ethyl 7-(3-{[(2-naphthylamino)carbonyl]amino}phenyl)pyrazolo[1,5-a]pyrimidine-3-carboxylate] are 58% and 2300 nM.
Turning to `COc1ccc(-c2cnn3c(-c4cccc(NC(=O)c5cccc(C(F)(F)F)c5)c4)ccnc23)cn1` [Example 312, N-{3-[3-(6-methoxypyridin-3-yl)pyrazolo[1,5-a]pyrimidin-7-yl]phenyl}-3-(trifluoromethyl)benzamide], the half-maximal inhibitory concentration (IC50) worked out at 578 nM and the inhibition at 10 µM was 77%.
Regarding `COCCCNC(=O)c1cnn2c(-c3cccc(NC(=O)c4cccc(C(F)(F)F)c4)c3)ccnc12` [Example 56, N-(3-methoxypropyl)-7-(3-{[3-(trifluoromethyl)benzoyl]amino}phenyl)pyrazolo[1,5-a]pyrimidine-3-carboxamide], the inhibition at 10 µM is 60%. Besides, under setting [1], the half-inhibitory concentration (IC50) turned out to be 1000 nM.

(Values after US20070219186A1, “Pyrazolo[1,5-A]pyrimidine derivatives and methods of use thereof” (priority 2006, published 2007).)
